The values below come from article PMC5218480 (PLoS ONE, 2017).

The assay deals with MV-4-11 cells. Description: Gene expression microarray analysis (Affymetrix PrimeView) and GSEA. In kind it is cell-based, human. Also noted: RFU PODN (11730768_x_at) / Fold change /veh PODN (11730768_x_at) / RFU LINC00158 (11744669_a_at) / Fold change /veh LINC00158 (11744669_a_at) / RFU DUSP10 (11751237_a_at) / Fold change /veh DUSP10 (11751237_a_at) / RFU ID3 (11757404_x_at) / Fold change /veh ID3 (11757404_x_at) / RFU PLEKHG5 (11737974_s_at) / Fold change /veh PLEKHG5 (11737974_s_at) / RFU LRRC4B (11730491_at) / Fold change /veh LRRC4B (11730491_at) / RFU GIMAP4 (11747438_a_at) / Fold change /veh GIMAP4 (11747438_a_at) / RFU KRT8 (11758183_x_at) / Fold change /veh KRT8 (11758183_x_at) / RFU CNN1 (11734310_a_at) / Fold change /veh CNN1 (11734310_a_at) / RFU VPS37D (11726825_at) / Fold change /veh VPS37D (11726825_at) / RFU C10orf10 (11716522_x_at) / Fold change /veh C10orf10 (11716522_x_at) / RFU KIR2DL2 /// KIR2DL4 /// KIR2DL5A /// KIR2DL5B /// KIR2DS1 /// KIR2DS2 /// KIR2DS3 /// KIR2DS4 /// KIR3DL3 /// KIR3DL3 /// KIR3DS1 (11738374_at) / Fold change /veh KIR2DL2 /// KIR2DL4 /// KIR2DL5A /// KIR2DL5B /// KIR2DS1 /// KIR2DS2 /// KIR2DS3 /// KIR2DS4 /// KIR3DL3 /// KIR3DL3 /// KIR3DS1 (11738374_at) / RFU C1QL1 (11718748_at) / Fold change /veh C1QL1 (11718748_at) / RFU TMPRSS4 (11747572_a_at) / Fold change /veh TMPRSS4 (11747572_a_at) / RFU HAMP (11756126_x_at) / Fold change /veh HAMP (11756126_x_at) / RFU RNFT2 (11725882_a_at) / Fold change /veh RNFT2 (11725882_a_at) / RFU NR4A2 (11747474_a_at) / Fold change /veh NR4A2 (11747474_a_at) / RFU ABCC12 (11746883_a_at) / Fold change /veh ABCC12 (11746883_a_at) / RFU TMEM136 (11760407_x_at) / Fold change /veh TMEM136 (11760407_x_at) / RFU CLDN22 /// WWC2 (11732394_at) / Fold change /veh CLDN22 /// WWC2 (11732394_at) / RFU HLA-DPB1 (11760878_x_at) / Fold change /veh HLA-DPB1 (11760878_x_at) / RFU SPINT1 (11716480_a_at) / Fold change /veh SPINT1 (11716480_a_at) / RFU GAP43 (11754022_s_at) / Fold change /veh GAP43 (11754022_s_at) / RFU A4GNT (11735810_at) / Fold change /veh A4GNT (11735810_at) / RFU PRB3 (11715151_x_at) / Fold change /veh PRB3 (11715151_x_at) / RFU TUBB4B (11761932_at) / Fold change /veh TUBB4B (11761932_at) / RFU CAPN14 (11732068_a_at) / Fold change /veh CAPN14 (11732068_a_at) / RFU TMCC2 (11721928_a_at) / Fold change /veh TMCC2 (11721928_a_at) / RFU IRGQ (11745062_a_at) / Fold change /veh IRGQ (11745062_a_at) / RFU FAM174B (11720279_a_at) / Fold change /veh FAM174B (11720279_a_at) / RFU TMPRSS4 (11748680_a_at) / Fold change /veh TMPRSS4 (11748680_a_at) / RFU FAM212B (11763350_a_at) / Fold change /veh FAM212B (11763350_a_at) / RFU PLEKHG5 (11743358_a_at) / Fold change /veh PLEKHG5 (11743358_a_at) / RFU ZSCAN30 (11745921_a_at) / Fold change /veh ZSCAN30 (11745921_a_at) / RFU CMKLR1 (11741424_a_at) / Fold change /veh CMKLR1 (11741424_a_at) / RFU LOC101060620 /// MAPK8IP1 (11723275_at) / Fold change /veh LOC101060620 /// MAPK8IP1 (11723275_at) / RFU SPTSSB (11747773_x_at) / Fold change /veh SPTSSB (11747773_x_at) / RFU PRSS12 (11739890_at) / Fold change /veh PRSS12 (11739890_at) / RFU BIN1 (11741810_x_at) / Fold change /veh BIN1 (11741810_x_at) / RFU WNT11 (11732464_a_at) / Fold change /veh WNT11 (11732464_a_at) / RFU C10orf10 (11716521_a_at) / Fold change /veh C10orf10 (11716521_a_at) / RFU C5orf56 (11738089_at) / Fold change /veh C5orf56 (11738089_at) / RFU CYB561 (11721691_x_at) / Fold change /veh CYB561 (11721691_x_at) / RFU ANKRD19P (11752326_a_at) / Fold change /veh ANKRD19P (11752326_a_at) / RFU OR2T12 /// OR2T33 /// OR2T8 (11738714_s_at) / Fold change /veh OR2T12 /// OR2T33 /// OR2T8 (11738714_s_at) / RFU VCAN (11748164_a_at) / Fold change /veh VCAN (11748164_a_at) / RFU JSRP1 (11732532_at) / Fold change /veh JSRP1 (11732532_at) / RFU KRTAP10-11 (11738290_x_at) / Fold change /veh KRTAP10-11 (11738290_x_at) / RFU MYO3A (11730013_a_at) / Fold change /veh MYO3A (11730013_a_at) / RFU EBF3 (11725865_a_at) / Fold change /veh EBF3 (11725865_a_at) / RFU CAMK2N1 (11719241_x_at) / Fold change /veh CAMK2N1 (11719241_x_at) / RFU C5orf56 (11738088_a_at) / Fold change /veh C5orf56 (11738088_a_at) / RFU OLFML3 (11715873_a_at) / Fold change /veh OLFML3 (11715873_a_at) / RFU LOC100653217 /// NTM (11731650_a_at) / Fold change /veh LOC100653217 /// NTM (11731650_a_at) / RFU MAPK11 (11762145_a_at) / Fold change /veh MAPK11 (11762145_a_at) / RFU FIZ1 (11724087_x_at) / Fold change /veh FIZ1 (11724087_x_at) / RFU OASL (11726364_x_at) / Fold change /veh OASL (11726364_x_at) / RFU SOX15 (11748057_x_at) / Fold change /veh SOX15 (11748057_x_at) / RFU CD79A (11719716_a_at) / Fold change /veh CD79A (11719716_a_at) / RFU HIST1H1D (11736915_at) / Fold change /veh HIST1H1D (11736915_at) / RFU CASKIN2 (11723855_a_at) / Fold change /veh CASKIN2 (11723855_a_at) / RFU LOC730098 (11760151_x_at) / Fold change /veh LOC730098 (11760151_x_at) / RFU OR4N2 (11742367_at) / Fold change /veh OR4N2 (11742367_at) / RFU PRRT2 (11749266_a_at) / Fold change /veh PRRT2 (11749266_a_at) / RFU SNX32 (11753110_a_at) / Fold change /veh SNX32 (11753110_a_at) / RFU CDHR5 (11726645_a_at) / Fold change /veh CDHR5 (11726645_a_at) / RFU RCAN1 (11760418_a_at) / Fold change /veh RCAN1 (11760418_a_at) / RFU FAM167A (11723789_a_at) / Fold change /veh FAM167A (11723789_a_at) / RFU FAM26E (11764081_at) / Fold change /veh FAM26E (11764081_at) / RFU ISYNA1 (11749810_s_at) / Fold change /veh ISYNA1 (11749810_s_at) / RFU ACY1 (11761880_at) / Fold change /veh ACY1 (11761880_at) / RFU 11764098_at / Fold change /veh 11764098_at / RFU SAMD14 (11745864_x_at) / Fold change /veh SAMD14 (11745864_x_at) / RFU NPB (11741838_a_at) / Fold change /veh NPB (11741838_a_at) / RFU TMPRSS6 (11731388_a_at) / Fold change /veh TMPRSS6 (11731388_a_at) / RFU KRTAP10-2 (11738614_at) / Fold change /veh KRTAP10-2 (11738614_at) / RFU ARHGAP8 /// PRR5-ARHGAP8 (11727945_x_at) / Fold change /veh ARHGAP8 /// PRR5-ARHGAP8 (11727945_x_at) / RFU KRTAP5-7 /// NADSYN1 (11734609_at) / Fold change /veh KRTAP5-7 /// NADSYN1 (11734609_at) / RFU RASL12 (11751679_a_at) / Fold change /veh RASL12 (11751679_a_at) / RFU CDKN2B (11736163_a_at) / Fold change /veh CDKN2B (11736163_a_at) / RFU PRF1 (11729649_at) / Fold change /veh PRF1 (11729649_at) / RFU, ZNF638 /// ZNF638-IT1 / Fold change vs veh, ZNF638 /// ZNF638-IT1 / RFU, PANK3 / Fold change vs veh, PANK3 / RFU, SH3YL1 / Fold change vs veh, SH3YL1 / RFU, ZEB2 / Fold change vs veh, ZEB2 / RFU, NRIP1 / Fold change vs veh, NRIP1 / RFU, PTTG1IP / Fold change vs veh, PTTG1IP / RFU, CAPN2 / Fold change vs veh, CAPN2 / RFU, MED14 / Fold change vs veh, MED14 / RFU, SNORA58 / Fold change vs veh, SNORA58 / RFU, C1orf63 / Fold change vs veh, C1orf63 / RFU, LRRFIP1 / Fold change vs veh, LRRFIP1 / RFU, NDUFAF7 / Fold change vs veh, NDUFAF7 / RFU, SLC12A2 / Fold change vs veh, SLC12A2 / RFU, IBTK / Fold change vs veh, IBTK / RFU, ESF1 / Fold change vs veh, ESF1 / Fold change vs veh, TMEM50B / RFU, TAOK1 / Fold change vs veh, TAOK1 / RFU, ACBD3 / Fold change vs veh, ACBD3 / RFU, TMA16 / Fold change vs veh, TMA16 / RFU, RWDD3 / Fold change vs veh, RWDD3 / RFU, BCAT1 / Fold change vs veh, BCAT1 / RFU, EDEM3 / Fold change vs veh, EDEM3 / RFU, TMEM33 / Fold change vs veh, TMEM33 / RFU, WDR75 / Fold change vs veh, WDR75 / RFU, AHCTF1 / Fold change vs veh, AHCTF1 / RFU, TFRC / Fold change vs veh, TFRC / RFU, ZDHHC17 / Fold change vs veh, ZDHHC17 / RFU, NOM1 / Fold change vs veh, NOM1 / RFU, ARL8B / Fold change vs veh, ARL8B / RFU, ZBTB11 / Fold change vs veh, ZBTB11 / RFU, TAMM41 / Fold change vs veh, TAMM41 / RFU, KIAA1704 /// LOC100996395 / Fold change vs veh, KIAA1704 /// LOC100996395 / RFU, ING1 / Fold change vs veh, ING1 / RFU, TRMT61B / Fold change vs veh, TRMT61B / RFU, FUBP3 / Fold change vs veh, FUBP3 / RFU, TP53 / Fold change vs veh, TP53 / RFU, TNKS2 / Fold change vs veh, TNKS2 / RFU, ZFP14 / Fold change vs veh, ZFP14 / RFU, ACTR2 / Fold change vs veh, ACTR2 / RFU, PPP3R1 / Fold change vs veh, PPP3R1 / RFU, PIK3R1 / Fold change vs veh, PIK3R1 / RFU, HNRNPA1 / Fold change vs veh, HNRNPA1 / RFU, RNF170 / Fold change vs veh, RNF170 / RFU, ZNF28 / Fold change vs veh, ZNF28 / RFU, RNGTT / Fold change vs veh, RNGTT / RFU, OGT / Fold change vs veh, OGT / RFU, BRD1 / Fold change vs veh, BRD1 / RFU, MARS / Fold change vs veh, MARS / RFU, ZNF655 / Fold change vs veh, ZNF655 / RFU, FAHD1 / Fold change vs veh, FAHD1 / RFU, BDP1 / Fold change vs veh, BDP1 / RFU, LRRCC1 / Fold change vs veh, LRRCC1 / RFU, ARID1A / Fold change vs veh, ARID1A / RFU, ZNF146 / Fold change vs veh, ZNF146 / RFU, ZNF330 / Fold change vs veh, ZNF330 / RFU, GPN3 / Fold change vs veh, GPN3 / RFU, C9orf123 / Fold change vs veh, C9orf123 / RFU, N4BP2L2 / Fold change vs veh, N4BP2L2 / RFU, ARFIP1 / Fold change vs veh, ARFIP1 / RFU, FAM179B / Fold change vs veh, FAM179B / RFU, BCL10 / Fold change vs veh, BCL10 / RFU, UHRF1BP1L / Fold change vs veh, UHRF1BP1L / RFU, BET1 / Fold change vs veh, BET1 / RFU, CNOT2 / Fold change vs veh, CNOT2 / RFU, ZNF268 / Fold change vs veh, ZNF268 / Fold change vs veh, ZNF507 / RFU, DGCR2 / Fold change vs veh, DGCR2 / RFU, WDSUB1 / Fold change vs veh, WDSUB1 / Fold change vs veh, HSP90B1 /// MIR3652 / RFU, ADSS / Fold change vs veh, ADSS / RFU, GK / Fold change vs veh, GK / RFU, ZNF148 / Fold change vs veh, ZNF148 / RFU, TAF9 / Fold change vs veh, TAF9 / RFU, SLC1A5 / Fold change vs veh, SLC1A5 / RFU, SLMO2 / Fold change vs veh, SLMO2 / RFU, ABCC4 / Fold change vs veh, ABCC4 / RFU, LOC101060439 /// RAP1B / Fold change vs veh, LOC101060439 /// RAP1B / RFU, RFX7 / Fold change vs veh, RFX7 / RFU, GTPBP10 / Fold change vs veh, GTPBP10 / RFU, CNEP1R1 / Fold change vs veh, CNEP1R1 / RFU, BIVM-ERCC5 /// ERCC5 / Fold change vs veh, BIVM-ERCC5 /// ERCC5 / RFU, ILF3 / Fold change vs veh, ILF3 / RFU 11762660_at / Fold change /veh 11762660_at / RFU VCAN (11757783_s_at) / Fold change /veh VCAN (11757783_s_at) / RFU DDX43 (11728927_at) / Fold change /veh DDX43 (11728927_at) / RFU KRT8 (11758188_x_at) / Fold change /veh KRT8 (11758188_x_at) / RFU NKD1 (11759106_at) / Fold change /veh NKD1 (11759106_at) / RFU SRD5A1 (11742802_a_at) / Fold change /veh SRD5A1 (11742802_a_at) / RFU TPSAB1 /// TPSB2 (11721975_s_at) / Fold change /veh TPSAB1 /// TPSB2 (11721975_s_at) / RFU GSTM3 (11746129_a_at) / Fold change /veh GSTM3 (11746129_a_at) / RFU IL23R (11737362_x_at) / Fold change /veh IL23R (11737362_x_at) / RFU TMEM51 (11727254_a_at) / Fold change /veh TMEM51 (11727254_a_at) / RFU PIWIL2 (11732686_x_at) / Fold change /veh PIWIL2 (11732686_x_at) / RFU ORM1 (11744905_x_at) / Fold change /veh ORM1 (11744905_x_at) / RFU CCDC152 (11743942_at) / Fold change /veh CCDC152 (11743942_at) / RFU ECM1 (11717891_a_at) / Fold change /veh ECM1 (11717891_a_at) / RFU IL23R (11748794_a_at) / Fold change /veh IL23R (11748794_a_at) / RFU TNFAIP8L3 (11732012_x_at) / Fold change /veh TNFAIP8L3 (11732012_x_at) / RFU MBOAT4 (11741988_at) / Fold change /veh MBOAT4 (11741988_at) / RFU 11764193_at / Fold change /veh 11764193_at / RFU TMEM53 (11763286_at) / Fold change /veh TMEM53 (11763286_at) / RFU MAGEB2 (11727129_at) / Fold change /veh MAGEB2 (11727129_at) / RFU TMEM200A (11744735_a_at) / Fold change /veh TMEM200A (11744735_a_at) / RFU CCDC152 (11751479_a_at) / Fold change /veh CCDC152 (11751479_a_at) / RFU FAM211A (11726209_a_at) / Fold change /veh FAM211A (11726209_a_at) / RFU RGS16 (11746705_a_at) / Fold change /veh RGS16 (11746705_a_at) / RFU VCAN (11755009_s_at) / Fold change /veh VCAN (11755009_s_at) / RFU RHOB (11743442_s_at) / Fold change /veh RHOB (11743442_s_at) / RFU RGS16 (11720943_a_at) / Fold change /veh RGS16 (11720943_a_at) / RFU RGS16 (11720944_at) / Fold change /veh RGS16 (11720944_at) / RFU, VPS4B / Fold change vs veh, VPS4B / RFU, CREB1 / Fold change vs veh, CREB1 / RFU, DNAJC13 / Fold change vs veh, DNAJC13 / RFU, GNAQ / Fold change vs veh, GNAQ / RFU, CDK5R1 / Fold change vs veh, CDK5R1 / RFU, ZRANB3 / Fold change vs veh, ZRANB3 / RFU, CUL4A / Fold change vs veh, CUL4A / RFU, CCNY / Fold change vs veh, CCNY / RFU, UFL1 / Fold change vs veh, UFL1 / RFU, COG3 / Fold change vs veh, COG3 / RFU, DIAPH2 / Fold change vs veh, DIAPH2 / RFU, SKA2 / Fold change vs veh, SKA2 / RFU, AFF3 / Fold change vs veh, AFF3 / RFU, LMF1 / Fold change vs veh, LMF1 / RFU, IPO11 / Fold change vs veh, IPO11 / RFU, DFFB / Fold change vs veh, DFFB / RFU, FOXP1 / Fold change vs veh, FOXP1 / RFU, CARD8 / Fold change vs veh, CARD8 / RFU, STRN3 / Fold change vs veh, STRN3 / RFU, ADK / Fold change vs veh, ADK / RFU, RASSF2 / Fold change vs veh, RASSF2 / RFU, WIPF1 / Fold change vs veh, WIPF1 / RFU, LARP1B / Fold change vs veh, LARP1B / RFU, RASA1 / Fold change vs veh, RASA1 / RFU, RB1 / Fold change vs veh, RB1 / RFU, PPFIA1 / Fold change vs veh, PPFIA1 / RFU, MAT2A / Fold change vs veh, MAT2A / RFU, CCT5 / Fold change vs veh, CCT5 / RFU, WDR92 / Fold change vs veh, WDR92 / RFU, CUX1 / Fold change vs veh, CUX1 / RFU, TTC7A / Fold change vs veh, TTC7A / RFU, TMEM135 / Fold change vs veh, TMEM135 / RFU, DEPTOR / Fold change vs veh, DEPTOR / RFU, CPM / Fold change vs veh, CPM / RFU, DNAJB6 / Fold change vs veh, DNAJB6 / RFU, CACNA2D3 / Fold change vs veh, CACNA2D3 / RFU, DTX4 / Fold change vs veh, DTX4 / RFU, TFCP2 / Fold change vs veh, TFCP2 / RFU, GMCL1 /// GMCL1P1 / Fold change vs veh, GMCL1 /// GMCL1P1 / RFU, AEBP2 / Fold change vs veh, AEBP2 / RFU, SNHG1 /// SNORD22 /// SNORD25 /// SNORD26 /// SNORD27 /// SNORD28 /// SNORD29 /// SNORD31 / Fold change vs veh, SNHG1 /// SNORD22 /// SNORD25 /// SNORD26 /// SNORD27 /// SNORD28 /// SNORD29 /// SNORD31 / Fold change (Aza/veh), C12orf56 (ProbeSet 11735607_a_at) / Fold change (ACY-1035/veh), C12orf56 (ProbeSet 11735607_a_at) / Fold change (Aza/veh), FGFR1OP (ProbeSet 11751329_s_at) / Fold change (ACY-1035/veh), FGFR1OP (ProbeSet 11751329_s_at) / Fold change (Aza/veh), VPS36 (ProbeSet 11739960_a_at) / Fold change (ACY-1035/veh), VPS36 (ProbeSet 11739960_a_at) / RFU SYPL1 (11715823_x_at) / Fold change /veh SYPL1 (11715823_x_at) / RFU IGFBP7 (11715501_s_at) / Fold change /veh IGFBP7 (11715501_s_at) / RFU REEP3 (11722064_at) / Fold change /veh REEP3 (11722064_at) / RFU IGLL1 (11728026_x_at) / Fold change /veh IGLL1 (11728026_x_at): dose or concentration left out as unconfirmed. The settings on record: MV-4-11 cells, 48 hours.

Regarding `Nc1ncn([C@@H]2O[C@H](CO)[C@@H](O)[C@H]2O)c(=O)n1` [azacitidine], the “Fold change /veh HAMP (11756126_x_at)” value came out at 0.87.
